This note sets out measurements from a melting point compilation (Tetko et al.; mined from patent text by program, amines drawn as free bases though some values may be those of a salt).

The structures appear in SMILES notation.

What is called melting point is the temperature, or range, at which the solid turns liquid. The molecule `Cc1nnc2n1-c1ccc(Cl)cc1C(N1CC=CCC1)=NC2` gave a melting point of 192 to 194 °C.
Take `O=C(NC1(C(=O)O)CC1)OCCOC(=O)C1CCCCC1`: the melting point was in the range of 124 to 125 °C.
Turning to `Cc1cccc(Cl)c1NS(=O)(=O)c1nc(N)n(C(=O)Oc2ccccc2)n1`, the melting point came out at 200 °C.
The result for `CCCCCCCCCCOc1cc(OCCCCCCCCCC)cc(C(=O)N(CC(=O)O)CC(=O)O)c1` reads 81 to 84 °C; that for `CC(=O)NC[C@H]1CN(c2ccc(N3CCC4(CCOCCO4)CC3)c(F)c2)C(=O)O1`, 182 to 184 °C.
The result for `Nc1nccc(Oc2ccc3c(C(=O)O)cccc3c2)n1` reads 205 °C.
The result for `O=c1[nH]ccc2c(OCc3ccccc3)cccc12` reads 165 to 168 °C; that for `CC(=O)NCc1coc2c(OC(C)=O)cccc12`, 138 to 139 °C.
Molecule `CC(C)(C)N(NC(=O)c1ccccc1)C(=O)c1ccco1` yielded a melting point of 155 to 175 °C.
`CC(C)(O)c1ccc(CNC(=O)c2cccnc2Oc2ccc3nsnc3c2)c(F)c1` showed a melting point of 124 to 125 °C.
The result for `Cc1ncc(CCCN2C(=O)c3ccccc3C2=O)s1` reads 75 °C; that for `COC(=O)C(C)(C)OCc1cc2cc(Cl)ccc2n1S(=O)(=O)c1ccc2c(c1)CCN2C(C)=O`, 128 to 130 °C; that for `O=C(O)C1CCc2c([nH]c3ccc(Cl)cc23)C1` (stereo unspecified), 196 to 197 °C.
To `NNC(=O)c1ccnc2[nH]c(CCc3ccccc3)cc12` belongs 233 to 234 °C; to `O=C1O[C@H](C(Cl)(Cl)Cl)N2CCC[C@@]12Cc1ccccc1`, 75 to 77 °C.
With `O=C(CCl)c1cccnn1`, the melting point lay in the range of 104 to 106 °C.
The result for `COc1ccc(-c2ccccc2-c2ccc(S(C)(=O)=O)cc2)cc1Cl` reads 162 °C; that for `Cc1ccccc1C=CCC(C(=O)C=Cc1ccc(Cl)cc1)c1ccccc1` (stereo unspecified), 60 to 76 °C.
Molecule `COc1ccc2cccc(C(CNC(=O)CF)COS(C)(=O)=O)c2c1` (stereo unspecified) displayed a melting point of 122 to 124 °C.
To `CCCCCc1ccc(CCc2ccc(-c3ccc([C@H]4CC[C@H](CCCCC)CC4)cc3F)cc2)cc1` belongs 69 °C; to `FC(F)(F)c1c(Cl)c(Cl)c(C=S)c(Cl)c1Cl`, 98.5 to 100 °C; to `NC(=O)CCC(=O)NCCS`, 173 °C.
Consider `CCCCCCCCOc1ccc(-c2ncc(O)cc2Cl)cc1`, for which the melting point was in the range of 128 to 130 °C.
The result for `Cc1ccc(C=C(C=O)C(C=O)=Cc2ccc(C)cc2)cc1` reads 177 to 178 °C; that for `O=C1c2c(Cl)cc(Cl)c(Cl)c2C(=O)N1c1ccccc1`, 199 to 200 °C; that for `CCCCc1ncc(/C=C(/C=C/C(=O)O)Cc2cccs2)n1Cc1ccccc1Cl`, 191 to 192 °C.
Molecule `CN(C)C1CCN(c2nccc(Oc3ccc(NC(=O)c4cc(F)cc(N5CCOCC5)c4)c4ccccc34)n2)C1` (stereo unspecified) yielded a melting point of 106 to 108 °C.
Take `CCOC(=O)c1cn(C)cc(-c2ccccc2)c1=O`: the melting point fell in the range of 107 to 108 °C.
`COc1ccc(-c2c(NS(=O)(=O)c3ccc(C)cc3)ncnc2OCCO)cc1` showed a melting point of 147 to 149 °C.
On to `N#CC=Cc1ccc(F)cc1`, for which the melting point was 64 to 65 °C.
`CCP(=O)(OC)C(O)[C@H](CC1CCCCC1)NC(=O)[C@H](CC(C)C)NC(=O)[C@H](Cc1ccccc1)NC(=O)C1CCCC1` (stereo partly specified) yielded a melting point of 155 to 165 °C.
To `CC1CCCN(CC(C)N2c3ccccc3Sc3ccc(C(N)=S)cc32)C1` (mixture of isomers) belongs 236 °C; to `CCOC(=O)C1=C(C)NC(c2csc(C)n2)=NC1c1ccc(F)cc1Cl` (stereo unspecified), 123 to 125 °C; to `OC1(COc2cccc3onc(OCC4CCN(CC5(O)CCOCC5)CC4)c23)CCCC1`, 136 °C.
In the case of `O=C1NC(=S)SC1=Cc1ccc2c(c1)N(OCc1ccc(C(F)(F)F)cc1)C(=O)CO2`, the melting point was more than 300 °C.
To `COC(=O)c1c(NC(=O)C(C)(C)C)c(Cl)cc(OC)c1OC` belongs 100 to 102 °C.
